From EP0700912A1, “QUINOLONE DERIVATIVE OR SALT THEREOF, AND ANTIBACTERIAL CONTAINING THE SAME” (priority 1993, dated 1994)
Values after ≈ are worked out from the molar mass of the structure shown.

What was measured:
[1] = test system: E.coli NIH JC-2 (IFO*12734); assay: Antibacterial activities: minimum inhibitory concentration (standard method of Japan Society of Chemotherapy); assay type: cell-based; conditions: Escherichia coli
Method: (§1) The minimum inhibitory concentration [MIC: µg/mℓ] was measured in accordance with the standard method of Japan Society of Chemotherapy [CHEMOTHERAPY, 29, No.1, 76-79(1981)]. The results are shown in Table 13 in which compound numbers are the same as those synthesized in the above Examples.

P.aeruginosa (IFO 3445) = assay: as above; assay type: cell-based; conditions: Pseudomonas aeruginosa, IFO3445
Method: as §1

[2] = test system: S.aureus 209P (IFO 12732); assay: as above; assay type: cell-based; conditions: Staphylococcus aureus
Method: as §1

[3] = Photo-toxicity: ear abnormality after intravenous dosing and ultraviolet exposure; assay type: in vivo; conditions: 40 mg/kg/10 mℓ intravenously, female ICR mouse, headed 0 hour; for Number of toxicity-developed cases: ultraviolet rays 320-400 nm, 1.8 mW/cm²/sec, 4 hours; for ranking points: ultraviolet rays 4 hours, 0 = no abnormality, 1 = slight erythema, 2 = medium erythema, 3 = heavy erythema or edema
Method: After 40 mg/kg/10 mℓ of the test compound were administered intravenously to a female ICR mouse (5-6 week old), it was exposed to ultraviolet rays (320-400 nm, 1.8 mW/cm²/sec) for 4 hours. […] The abnormality on the ears was ranked as 0 point in the case of no abnormality, 1 point in the case of slight erythema, 2 points in the case of medium erythema, and 3 points in the case of heavy erythema or edema.

[4] = Absorption and excretion: recovery in bile after oral administration; assay type: in vivo; conditions: rats with polyethylene tube in choledoch, bile collected over 24 hours
Method: The absorption and excretion of the orallyadministered invention compound were tested by measuring the recovery in urine and that in bile according to the following method.
After the test compound was prepared in a similar manner to the measurement of the recovery in urine, it was orally administered to the rats who had had their choledoch inserted with a polyethylene tube. The bile was collected over 24 hours. The concentration of the test compound in the bile was examined in the similar manner to the above and the excretion rate in the bile for 24 hours was determined.

| MIC [1] | MIC (P.aeruginosa (IFO 3445)) | MIC [2] | Structure (SMILES) | Number of toxicity-developed cases ([3]; first column) | Number of toxicity-developed cases ([3]; second column) | Number of toxicity-developed cases ([3]; third column) | ranking points ([3]; first column) | ranking points ([3]; second column) | ranking points ([3]; third column) | Excretion rate (24 hrs, %) in bile [4] |
| --- | --- | --- | --- | --- | --- | --- | --- | --- | --- | --- |
| 0.013 µg/mL (≈ 0.0348 µM) | 0.1 µg/mL (≈ 0.268 µM) | 0.05 µg/mL (≈ 0.134 µM) | Nc1c(F)c(N2CC[C@H](N)C2)cc2c1c(=O)c(C(=O)O)cn2-c1ccon1 [compound 57] | – | – | – | – | – | – | – |
| 0.013 µg/mL (≈ 0.0336 µM) | 0.2 µg/mL (≈ 0.516 µM) | 0.05 µg/mL (≈ 0.129 µM) | C[C@H]1CN(c2cc3c(c(N)c2F)c(=O)c(C(=O)O)cn3-c2ccon2)C[C@H]1N [compound 58] | – | – | – | – | – | – | – |
| 0.1 µg/mL (≈ 0.277 µM) | 1.56 µg/mL (≈ 4.32 µM) | 0.39 µg/mL (≈ 1.08 µM) | CC1COc2c(N3CCN(C)CC3)c(F)cc3c(=O)c(C(=O)O)cn1c23 (stereo not shown) [Ofloxacin, reference compound] | – | – | – | – | – | – | – |
| – | – | – | CCn1cc(C(=O)O)c(=O)c2cc(F)c(N3CCNCC3)cc21 [Norfloxacin, reference compound] | – | – | – | 1.0 | 1.0 | 0 | – |
| 0.05 µg/mL (≈ 0.127 µM) | 0.2 µg/mL (≈ 0.509 µM) | 0.2 µg/mL (≈ 0.509 µM) | N[C@H]1CCN(c2cc3c(c(Cl)c2F)c(=O)c(C(=O)O)cn3-c2ccon2)C1 [compound 49] | – | – | – | – | – | – | – |
| – | – | – | CCn1cc(C(=O)O)c(=O)c2cc(F)c(N3CCNCC3)nc21 [Enoxacin, reference compound] | – | – | – | 1.0 | 0.4 | 0.3 | – |

| Structure (SMILES) | MIC [1] | MIC (P.aeruginosa (IFO 3445)) | MIC [2] | Number of toxicity-developed cases ([3]; first column) | Number of toxicity-developed cases ([3]; second column) | Number of toxicity-developed cases ([3]; third column) | ranking points ([3]; first column) | ranking points ([3]; second column) | ranking points ([3]; third column) | Excretion rate (24 hrs, %) in bile [4] |
| --- | --- | --- | --- | --- | --- | --- | --- | --- | --- | --- |
| Cl.N[C@H]1CCN(c2cc3c(cc2F)c(=O)c(C(=O)O)cn3-c2ccon2)C1 [Compound No. 4, 7-{3(S)-aminopyrrolidin-1-yl}-6-fluoro-1-(isoxazol-3-yl)-1,4-dihydro-4-oxoquinoline-3-carboxylic acid hydrochloride] | 0.025 µg/mL | 0.1 µg/mL | 0.1 µg/mL | 0/6 | 0/6 | 0/6 | 0 | 0 | 0 | – |
| C[C@H]1CN(c2cc3c(cc2F)c(=O)c(C(=O)O)cn3-c2ccon2)C[C@H]1N [Compound No. 5] | 0.025 µg/mL (≈ 0.0671 µM) | 0.2 µg/mL (≈ 0.537 µM) | 0.1 µg/mL (≈ 0.269 µM) | 0/6 | 0/6 | 0/6 | 0 | 0 | 0 | 1.2% |
